Measured values from patent publication US12448363B2, “Kinase inhibitors” (Vidya Therapeutics, Inc., priority 2020, dated 2025).

What was measured:
[1] = tested on: BTK Activity in RAMOS B Cells; experiment: Assay to determine BTK activity in RAMOS B cells (anti-IgM, FLIPR Calcium 6); assay type: cell-based; conditions: EC80 anti-IgM, FLIPR calcium read
Method: On the day before assay, Ramos B cells were plated in plating medium (RPMI1640 medium containing 1% FBS and 1× pencillin-streptomycin). On the day of the assay, 2× dye solution was prepared following the manual of the FLIRP Calcium 6 Assay Kit: Dilute the dye with assay buffer (20 mM HEPES in 1×HBSS, pH7.4); Add probenecid to the final concentration of 5 mM; vortex vigorously for 1-2 minutes. Cells were collected by centrifuging, and the pellet was resuspended in plating medium. After counting, cells were resuspended at a density of 3×10^6/ml in plating medium. Equal volume of 2× dye solution was added to the cell suspension. Cells were then plated at 20 μl/well into a 384-well poly-D-lysine coated plate. Plate was centrifuged at 1000 rpm for 3 minutes and then incubated at 37° C. for 2 hours followed by an additional 15-minute incubation at 25° C. Compounds were prepared at 3× concentration in dilution buffer (20 mM HEPES and 0.1% BSA in 1×HBSS, pH 7.4). Serially diluted compound was transferred from source plate to a 384-well compound plate by using an Echo 550 (Labcyte). 20 μl/well compound dilution buffer was added to the compound plate and mixed on plate shaker for 2 mins. 4×EC80 of Anti-IgM (Jackson ImmunoResearch) was prepared in dilution buffer and 20 μl/well was added to a new 384-well compound plate. After 60 mins of incubation at 25° C. in the dark; cell plate, compound plate containing 4×EC80 of anti-IgM and FLIPR tips were placed into FLIPR (Molecular Devices). 10 ul/well of 4×EC80 anti-IgM was transferred to the cell plate by FLIPR. Plates were read for 160 sec with 1 sec interval.
With respect to Ramos activity, Table 9 lists activity as follows: • “A” denotes an IC50 of less than 10 nM; • “B” denotes an IC50 of from 10 nM to less than 100 nM; and • “C” denotes and IC50 of 100 nM or more.

BTK = BTK (Homo sapiens, UniProt Q06187); experiment: Assay to determine activity against BTK (EZ reader, FLPeptide); assay type: biochemical; design: purchased Carna; conditions: ATP (1 mM), BTK (2 nM), room temperature for 90 minutes
Method: Solutions of compounds (test or control) in DMSO were prepared at the desired concentrations, and serially diluted to 11 concentrations by 3-fold dilution in 384pp-plate using TECAN EVO200. 20 nL of stock were transferred to 384 plate using Echo550. DMSO was used as vehicle control.
Two separate solutions were prepared—an ATP solution containing MgCl2 (10 mM), Brij-35 (0.01%), DTT (2 mM), BSA (0.05%), EGTA (1 mM), HEPE (pH7.5) (50 mM), FLPeptide (6 uM) and ATP (4 mM); and a BTK solution containing MgCl2 (10 mM), Brij-35 (0.01%), DTT (2 mM), BSA (0.05%), EGTA (1 mM), HEPE (pH7.5) (50 mM) and BTK (2.67 nM). […] (Note the final volume of each well was 20 uL containing MgCl2 (10 mM), Brij-35 (0.01%), DTT (2 mM), BSA (0.05%), EGTA (1 mM), HEPE (pH7.5) (50 mM), FLPeptide (1.5 uM), ATP (1 mM) and BTK (2 nM).
The plates were incubated at room temperature for 90 minutes and then stopping buffer added (75 uL, containing 0.5 M EDTA) to terminate the reaction. Samples from each well were analyzed using EZ reader. The % remaining activity was calculated using read conversion ratio (CR) according to the equation: […]
XLFit (equation 201) was used to calculate IC50s by floating both bottom and top.
With respect to BTK activity, Table 4 lists activity as follows: • “A” denotes an IC50 of less than 10 nM, • “B” denotes an IC50 of from 10 nM to less than 100 nM; and • “C” denotes and IC50 of 100 nM or more.

BTK, sequence (Q06187 whole entry): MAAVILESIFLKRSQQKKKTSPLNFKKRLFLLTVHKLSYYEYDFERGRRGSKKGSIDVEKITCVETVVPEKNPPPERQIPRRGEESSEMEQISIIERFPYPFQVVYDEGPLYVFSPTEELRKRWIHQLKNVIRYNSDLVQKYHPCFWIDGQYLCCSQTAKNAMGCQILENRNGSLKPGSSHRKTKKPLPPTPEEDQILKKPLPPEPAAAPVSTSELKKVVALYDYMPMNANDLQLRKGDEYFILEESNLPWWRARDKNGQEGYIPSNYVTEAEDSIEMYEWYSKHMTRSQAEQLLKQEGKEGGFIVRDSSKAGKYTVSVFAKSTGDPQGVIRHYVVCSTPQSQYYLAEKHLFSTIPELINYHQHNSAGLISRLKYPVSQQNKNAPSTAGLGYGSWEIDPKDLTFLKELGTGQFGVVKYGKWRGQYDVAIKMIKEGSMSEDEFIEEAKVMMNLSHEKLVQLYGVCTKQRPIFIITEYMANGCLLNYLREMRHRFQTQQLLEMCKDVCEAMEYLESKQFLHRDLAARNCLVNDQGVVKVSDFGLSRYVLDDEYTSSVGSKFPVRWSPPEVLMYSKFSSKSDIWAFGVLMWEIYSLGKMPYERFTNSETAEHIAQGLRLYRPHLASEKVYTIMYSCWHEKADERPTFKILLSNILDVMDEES

SMILES | IC50 ([1]; Homo sapiens, Ramos) [nM] | IC50 (BTK) [nM] | IC50 [1] [nM] | IC50 ([1]; Homo sapiens) [nM]
C=CC(=O)N1CCCC(c2c(F)c(F)c(C(N)=O)c3[nH]c(C)c(F)c23)C1 (centres unmarked) [Compound 13, 4-(1-acryloylpiperidin-3-yl)-3,5,6-trifluoro-2-methyl-1H-indole-7-carboxamide] | < 10 | < 10 |  | 
C=CC(=O)N1CCCC(c2c(F)cc(C(N)=O)c3[nH]c(C)c(C(F)F)c23)C1 (centres unmarked) [Compound 14, 4-(1-acryloylpiperidin-3-yl)-3-(difluoromethyl)-5-fluoro-2-methyl-1H-indole-7-carboxamide] | ≥ 100 | ≥ 100 |  | 
CC#CC(=O)N1CCC[C@H](c2c(F)cc(C(N)=O)c3[nH]c(C)c(Cl)c23)C1 [Compound 17, (R)-4-(1-(but-2-ynoyl)piperidin-3-yl)-3-chloro-5-fluoro-2-methyl-1H-indole-7-carboxamide] | ≥ 100 | ≥ 100 |  | 
CC#CC(=O)N1CCC[C@@H](c2c(F)cc(C(N)=O)c3[nH]c(C)c(Cl)c23)C1 [Compound 18, (S)-4-(1-(but-2-ynoyl)piperidin-3-yl)-3-chloro-5-fluoro-2-methyl-1H-indole-7-carboxamide] | ≥ 100 | ≥ 100 |  | 
CC#CC(=O)N1CCC=C(c2c(F)cc(C(N)=O)c3[nH]c(C)c(Cl)c23)C1 [Compound 19, 4-(1-(but-2-ynoyl)-1,2,5,6-tetrahydropyridin-3-yl)-3-chloro-5-fluoro-2-methyl-1H-indole-7-carboxamide] | ≥ 100 | ≥ 100 |  | 
C#CC(=O)N1CCc2c(cccc2-c2c(F)cc(C(N)=O)c3[nH]c(C)c(C)c23)C1 [Compound 20j, 5-fluoro-2,3-dimethyl-4-(2-propioloyl-1,2,3,4-tetrahydroisoquinolin-5-yl)-1H-indole-7-carboxamide] | 10 to 100 | < 10 |  | 
C=CC(=O)N1CCc2c(cccc2-c2c(F)c(F)c(C(N)=O)c3[nH]c(C)c(Cl)c23)C1 [Compound 21a, 4-(2-acryloyl-1,2,3,4-tetrahydroisoquinolin-5-yl)-3-chloro-5,6-difluoro-2-methyl-1H-indole-7-carboxamide] |  | < 10 | 10 to 100 | 
C=CC(=O)N1CCc2c(cccc2-c2c(F)c(F)c(C(N)=O)c3[nH]c(C)c(F)c23)C1 [Compound 21d, 4-(2-acryloyl-1,2,3,4-tetrahydroisoquinolin-5-yl)-3,5,6-trifluoro-2-methyl-1H-indole-7-carboxamide] | 10 to 100 | 10 to 100 |  | 
C=CC(=O)N1CCc2c(cccc2-c2c(F)c(F)c(C(N)=O)c3[nH]c(C)c(C#N)c23)C1 [Compound 21e, 4-(2-acryloyl-1,2,3,4-tetrahydroisoquinolin-5-yl)-3-cyano-5,6-difluoro-2-methyl-1H-indole-7-carboxamide] | 10 to 100 | 10 to 100 |  | 
C=CC(=O)N1CCCc2c(cccc2-c2c(F)cc(C(N)=O)c3[nH]c(C)cc23)C1 [Compound 25b, 4-(2-acryloyl-2,3,4,5-tetrahydro-1H-benzo[c]azepin-6-yl)-5-fluoro-2-methyl-1H-indole-7-carboxamide] |  | 10 to 100 |  | ≥ 100
C=CC(=O)N[C@H]1CN(c2c(F)cc(C(N)=O)c3[nH]c(C)c(C)c23)CC[C@@H]1F [Compound 30, 4-((3S,4S)-3-acrylamido-4-fluoropiperidin-1-yl)-5-fluoro-2,3-dimethyl-1H-indole-7-carboxamide] | 10 to 100 | 10 to 100 |  | 
C=CC(=O)N[C@H]1CN(c2c(F)cc(C(N)=O)c3[nH]c(C)c(C)c23)CC[C@H]1F [Compound 31, 4-((3S,4R)-3-acrylamido-4-fluoropiperidin-1-yl)-5-fluoro-2,3-dimethyl-1H-indole-7-carboxamide] | 10 to 100 | 10 to 100 |  | 
C=CC(=O)N[C@H]1C[C@@H](F)CN(c2c(F)cc(C(N)=O)c3[nH]c(C)c(C)c23)C1 [Compound 34, 4-((3S,5R)-3-acrylamido-5-fluoropiperidin-1-yl)-5-fluoro-2,3-dimethyl-1H-indole-7-carboxamide] | ≥ 100 | 10 to 100 |  | 
C=CC(=O)N[C@H]1C[C@@H](O)CN(c2c(F)cc(C(N)=O)c3[nH]c(C)c(C)c23)C1 [Compound 37, 4-((3S,5R)-3-acrylamido-5-hydroxypiperidin-1-yl)-5-fluoro-2,3-dimethyl-1H-indole-7-carboxamide] | ≥ 100 | 10 to 100 |  | 
C=CC(=O)N[C@H]1C[C@H](O)CN(c2c(F)cc(C(N)=O)c3[nH]c(C)c(C)c23)C1 [Compound 38, 4-((3S,5S)-3-acrylamido-5-hydroxypiperidin-1-yl)-5-fluoro-2,3-dimethyl-1H-indole-7-carboxamide] | 10 to 100 | 10 to 100 |  | 

The next lines start with results.

IC50 ([1]; Homo sapiens, Ramos) [nM] | IC50 (BTK) [nM] | IC50 [1] [nM] | SMILES | IC50 ([1]; Homo sapiens) [nM]
 | < 10 | 10 to 100 | C=CC(=O)N1CCc2c(cccc2-c2c(F)cc(C(N)=O)c3[nH]c(C)c(C#N)c23)C1 [Compound 20g, 4-(2-acryloyl-1,2,3,4-tetrahydroisoquinolin-5-yl)-3-cyano-5-fluoro-2-methyl-1H-indole-7-carboxamide] | 
10 to 100 | 10 to 100 |  | C=CC(=O)N1CCc2c(-c3c(F)cc(C(N)=O)c4[nH]c(C)cc34)cccc2C1C1CC1 (centres unmarked) [Compound 23, 4-(2-acryloyl-1-cyclopropyl-1,2,3,4-tetrahydroisoquinolin-5-yl)-5-fluoro-2-methyl-1H-indole-7-carboxamide] | 
≥ 100 | 10 to 100 |  | C=CC(=O)N1Cc2cccc(-c3c(F)cc(C(N)=O)c4[nH]c(C)c(Cl)c34)c2C2(CC2)C1 [Compound 24a, 4-(2′-Acryloyl-2′,3′-dihydro-1′H-spiro[cyclopropane-1,4′-isoquinolin]-5′-yl)-3-chloro-5-fluoro-2-methyl-1H-indole-7-carboxamide] | 
≥ 100 | ≥ 100 |  | C=CC(=O)N1Cc2cccc(-c3c(F)cc(C(N)=O)c4[nH]c(C)cc34)c2C2(CC2)C1 [Compound 24b, 4-(2′-acryloyl-2′,3′-dihydro-1′H-spiro[cyclopropane-1,4′-isoquinolin]-5′-yl)-5-fluoro-2-methyl-1H-indole-7-carboxamide] | 
10 to 100 | 10 to 100 |  | C=CC(=O)N1CCCc2c(cccc2-c2c(F)cc(C(N)=O)c3[nH]c(C)c(Cl)c23)C1 [Compound 25a, 4-(2-Acryloyl-2,3,4,5-tetrahydro-1H-benzo[c]azepin-6-yl)-3-chloro-5-fluoro-2-methyl-1H-indole-7-carboxamide] | 
≥ 100 | 10 to 100 |  | C=CC(=O)N1CCCc2c(cccc2-c2c(F)cc(C(N)=O)c3[nH]c(C)c(F)c23)C1 [Compound 25e, 4-(2-acryloyl-2,3,4,5-tetrahydro-1H-benzo[c]azepin-6-yl)-3,5-difluoro-2-methyl-1H-indole-7-carboxamide] | 
≥ 100 | ≥ 100 |  | C=CC(=O)N1CC2CC1c1cccc(-c3c(F)cc(C(N)=O)c4[nH]c(C)c(Cl)c34)c12 (centres unmarked) [Compound 26, 4-(2-acryloyl-1,2,3,4-tetrahydro-1,4-methanoisoquinolin-5-yl)-3-chloro-5-fluoro-2-methyl-1H-indole-7-carboxamide] | 
